Experiment [1] concerns human dermal microvascular endothelial cells. Kind of experiment: Endothelial cell migration assay (modified Boyden chamber), human dermal microvascular endothelial cells. As to conditions: VEGF 200 pg/ml gradient; FIG. 7. It is filed as cell-based. Here is the method:
(§1) The cells were plated on gelatinized Nucleopore membranes (5 μm pores for bovine capillary cells and 8 μm pores for other cells) in an inverted modified Boyden chamber. After two hours, the chamber was reinverted and test substances added to the top wells of each. Specifically, populations were exposed to either culture medium alone (control), 10 ng/ml bFGF, 2 nM PEDF (full length PEDF), or both 10 ng/ml bFGF (basic fibroblast growth factor) and 10 nM PEDF. The cells were then permitted to migrate for 3-4 hours. Following this, the membranes were fixed and stained, and the number of cells that had migrated were counted.
Additional truncated peptides derived from PEDF were tested for efficacy in the endothelial cell migration assay using human dermal microvascular endothelial cells (Clonetics, Cell Systems) at passage 9 in a modified Boyden Chamber, as described above, and the results are shown in FIG. 7. In FIG. 7A, the cells were exposed to the gradient of VEGF in the presence of purified recombinant PEDF (rPEDF), bacterially produced PEDF (BH) or PEDF peptides containing only amino acid residues 78-121 (44-mer) and 44-77 (34-mer) referring to SEQ ID NO:1. Neutralizing antibodies were added where shown to verify if the anti-angiogenic effect is specific to PEDF peptides and not due to contamination. Both full length PEDF preparations were used at 25 nM, neutralizing polyclonal antiserum against PEDF was used at 1:200 dilution, recombinant human VEGF (R&D Systems) at 200 pg/ml. In FIG. 7B, the cells were exposed to the gradient of VEGF in the presence of increasing concentrations of 34-mer and 44-mer peptides. The antiserum used in this experiment was not affinity purified, whereas the antiserum used in all other experiments presented herein was affinity purified.

In experiment [2] the test system is bovine adrenal capillary endothelial cells. Kind of experiment: Endothelial cell migration assay (modified Boyden chamber), bovine adrenal capillary endothelial cells. It is filed as cell-based. The following applies: migration towards bFGF; FIGS. 4 and 5. Here is the method:
as §1
The amount of a given factor necessary to achieve 50% of migration was determined and is reported here as ED50.
In particular, aFGF was employed at a concentration of 50 ng/ml, bFGF was employed at a concentration of 10 ng/ml, IL-8 was employed at a concentration of 40 ng/ml, PDGF was employed at a concentration of 250 pg/ml, and VEGF was employed at a concentration of 100 pg/ml.
In studies aimed at identifying antiangiogenic factors in the eye that might be regulated by the retinoblastoma tumor suppressor gene (Rb), media was fractionated where the media was previously conditioned by a retinoblastoma cell line that had been infected with a retrovirus expressing the wild-type Rb gene, WERI-Rb-27R. (Xu et al., 1991, Cancer Res. 51:4481). […] PEDF was purified from WERI-Rb-27R serum-free conditioned media by sequential steps consisting of dialysis (molecular mass cutoff, 30 kD) against distilled water, 60 to 95% ammonium sulfate precipitation, step elution from lentil lectin Sepharose 4B (Pharmacia) with 0.5 M α-methyl-D-mannopyranoside, and elution from a HiTrap heparin Sepharose column (Pharmacia) with increasing NACl gradient. (Xu, et al., 1991, Cancer Res. 51:4481). […] Migration assays were performed in quadruplicate for each sample with bovine adrenal capillary endothelial cells or human dermal microvascular endothelial cells (Clonetics, San Diego, Calif.) as described. (Polverini, et al., 1991, Methods Enzymol. 198:440). To combine multiple experiments, background migration (Bkgd) was first subtracted toward vehicle (0.1% bovine serum albumin) and them normalized data by setting maximum migration toward inducer alone to 100%. All experiments were repeated two to five times. Statistics were performed on raw data before normalization with the Student's t test. Standard errors were converted to percentages. […] Single-letter abbreviations for the amino acid residues are as follows: A, Ala; D, Asp; E. Glu; F. Phe; G, Gly; I, Ile; L, Leu; M, Met; P, Pro; Q, Gln; R, Arg; S, Ser; T, Thr; V, Val; X, any amino acid; and Y, Tyr.

On to “MQALVLLLCIGALLGHSSCQNPASPPEEGSPDPDSTGALVEEEDPFFKVPVNKLAAAVSNFGYDLYRVRSSMSPTTNVLLSPLSVATALSALSLGADERTESIIHRALYYDLISSPDIHGTYKELLDTVTAPQKNLKSASRIVFEKKLRIKSSFVAPLEKSYGTRPRVLTGNPRLDLQEINNWVQAQMKGKLARSTKEIPDEISILLLGVAHFKGQWVTKFDSRKTSLEDFYLDEERTVRVPMMSDPKAVLRYGLDSDLSCKIAQLPLTGSMSIIFFLPLKVTQNLTLIEESLTSEFIHDIDRELKTVQAVLTVPKLKLSYEGEVTKSLQEMKLQSLFDSPDFSKITGKPIKLTQVEHRAGFEWNEDGAGTTPSPGLQPAHLTFPLDYHLNQPFIFVLRDTDTGALLFIGKILDPRGP [34 amino acid peptide]”, for which the “anti-angiogenic activity (block of migration towards VEGF)” value in experiment [1] was “active as an anti-angiogenic agent”.

In the case of “44 amino acid peptide: PEDF peptide containing only amino acid residues 78-121 of SEQ ID NO:1 (VLLSPLSVATALSALSLGADERTESIIHRALYYDLISSPDIHGT; listed as Homo Sapiens)”, the “anti-angiogenic activity (block of migration towards VEGF)” value in experiment [1] is given as “not active as an anti-angiogenic agent”.

B1: truncated peptide: trypsin-truncated PEDF missing the approximately 3-5 kDa carboxy-terminal portion (protein, listed as Homo Sapiens)
chain: NPASPPEEGSPDPDSTGALVEEEDPFFKVPVNKLAAAVSNFGYDLYRVRSSMSPTTNVLLSPLSVATALSALSLGADERTESIIHRALYYDLISSPDIHGTYKELLDTVTAPQKNLKSASRIVFEKKLRIKSSFVAPLEKSYGTRPRVLTGNPRLDLQEINNWVQAQMKGKLARSTKEIPDEISILLLGVAHFKGQWVTKFDSRKTSLEDFYLDEERTVRVPMMSDPKAVLRYGLDSDLSCKIAQLPLTGSMSIIFFLPLKVTQNLTLIEESLTSEFIHDIDRELKTVQAVLTVPKLKLSYEGEVTKSLQEMKLQSLFDSPDFSKITGKPIKLTQVEHRAGFEWNEDGAGTTPSPGLQPAHL
In the case of B1, the “potency at inhibiting endothelial cell migration, dose response” value in experiment [2] is on record as “similarly potent at inhibiting endothelial cell migration”.

For the origin of these results see patent publication US6919309B2, “Methods and compositions for inhibiting angiogenesis” (Northwestern University, priority 1997, dated 2005).
